The subject of assay [1] is strain PAM1154 of P. aeruginosa. Kind of assay: Minimal bactericidal concentration (MBC), P. aeruginosa. In kind it is cell-based. Particulars: Pseudomonas aeruginosa.
Assay [2] deals with T1, PBP2 (Pseudomonas aeruginosa, UniProt Q9X6V3).
T1 construct: endogenous in cells
Kind of assay: Gel-based Bocillin FL competition PBP binding assay. The following applies: P. aeruginosa PAM3034 membranes; Bocillin FL step 0°C for xeruborbactam, 30°C for beta-lactams; read-out: Relative binding IC50, PBP2. The protocol: (§1) Ten milliliters of overnight bacterial culture was inoculated in 1 L of LB medium and grown to an OD600 of 0.7 to 0.9. The cell pellet was washed once with 50 mL of solution containing 100 mM Na-phosphate at pH 7.0 and 100 mM NaCl and resuspended in 10 mL of the same buffer with one tablet of EDTA-free mini-protease inhibitor and 10 mg of lysozyme. Cell suspensions were incubated for 45 min at 37°C, and then 200 μL of DNase I was added along with MgSO4 (to a final concentration of 10 mM), followed by three cycles of freeze-thawing (10 min and 20 min, respectively). Four cycles of sonication at maximum power were performed next, each cycle lasting for 30 s with 1 min on ice between cycles. The cell suspension was centrifuged at 12,000 × g for 10 min at 4°C. The supernatant was collected and centrifuged at 100,000 × g for 45 min at 4°C. The pellet was washed three times with 10 mL of 100 mM Na-phosphate, pH 7.0, by resuspension and subsequent centrifugation at 100,000 × g for 10 min at 4°C. The pellet was finally resuspended in 1.5 mL of 100 mM Na-phosphate, pH 7.0, and passed several times through a Dounce homogenizer (tight pestle). Membrane preparations were aliquoted and kept at −80°C.
(§2) Five microliters of total bacterial membrane preparation was mixed with 5 μL of a test compound at a desired concentration in 100 mM Na-phosphate buffer, pH 7.0. Incubation of bacterial membrane preparations with control beta-lactams was performed for 10 min at 30°C; xeruborbactam was incubated with membrane preparations for 1 h at 30°C. Five microliters of 150 μM Bocillin FL fluorescent probe (Thermo Fisher Scientific) was added, and the reaction mixture was incubated for an additional 10 min at 30°C in the case of beta-lactams or for 20 min on ice (0°C) in the case of xeruborbactam. […] At the end of the incubation step, 15 μL of 2× SDS sample loading buffer was added, and the reaction mixture was incubated for 5 min at 95°C. Twenty-five microliters of the reaction mixture was then loaded on an 8% SDS Tris-glycine gel (Thermo Fisher Scientific). At the end of the run, the gel was briefly rinsed with water and fixed in 10% acetic acid, 40% methanol for 20 min. After an additional wash in water for 30 min, the gel was scanned on a Typhoon Trio+ Imager using a blue laser filter (excitation, 488 nm, and emission, 520 nm). Densitometry of the gel images was performed using ImageQuant software (Molecular Dynamics). IC50 values were calculated with Prism software (GraphPad).

In another assay the target is T2, PBP3 (Pseudomonas aeruginosa, UniProt G3XD46).
T2 construct: endogenous in cells
The description is as above. The following applies: P. aeruginosa PAM3034 membranes; Bocillin FL step 0°C for xeruborbactam, 30°C for beta-lactams; read-out: Relative binding IC50, PBP3. How it is done: as §1, §2

Assay [3] deals with strain KPM1026a of K. pneumoniae. Kind of assay: Minimal bactericidal concentration (MBC), K. pneumoniae. Particulars: Klebsiella pneumoniae. In kind it is cell-based.
Another assay relates to Proteus mirabilis. The assay can be described thus: Broth microdilution MIC (CLSI), Proteus mirabilis. In kind it is cell-based. The following applies: 23 isolates. An excerpt: (§3) Bacterial isolates were subjected to broth microdilution susceptibility testing, performed according to Clinical and Laboratory Standards Institute (CLSI) methods ([46]), using panels prepared in-house. Meropenem was purchased from Sandoz, and all other antibiotics were from Sigma-Aldrich. Xeruborbactam was synthesized at Qpex Biopharma, San Diego, CA. Avibactam was purchased from eNovation Chemicals LLC, Bridgewater, NJ, USA; zidebactam was from MedKoo Biosciences, Inc., Morrisville, NC, and nacubactam was from Advanced ChemBlocks, Hayward, CA. Durlobactam was synthesized at Acme Bioscience, Palo Alto, CA, USA.

The test system of the next assay is Other Enterobacterales. The assay can be described thus: Broth microdilution MIC (CLSI), other Enterobacterales. In kind it is cell-based. The following applies: 18 isolates.
Text: as §3

In assay [4] the target is T3, PBP1a (Pseudomonas aeruginosa, UniProt Q07806).
T3 construct: endogenous in cells
Kind of assay: Gel-based Bocillin FL competition PBP binding assay. The following applies: P. aeruginosa PAM3034 membranes; Bocillin FL step 0°C for xeruborbactam, 30°C for beta-lactams; read-out: Relative binding IC50, PBP1a. The protocol:
as §1, §2

The target of assay [5] is T1, PBP2. Details: method as in PMID 18250190. Particulars: value in parentheses; P. aeruginosa PAO1; cited from earlier work.
In assay [6] the target is PBP1a (Klebsiella pneumoniae, UniProt A0A0H3GZF1). Details: method as in PMID 29712652. The following applies: read-out: IC50, PBP1a; value in parentheses; K. pneumoniae ATCC 43816; cited from earlier work.
Assay [7] has as its target PBP2 (Klebsiella pneumoniae, UniProt A6T696). Further details: method as in PMID 29712652. Particulars: read-out: IC50, PBP2; value in parentheses; K. pneumoniae ATCC 43816; cited from earlier work.
Assay [8] has as its target T4, PBP2 (Acinetobacter baumannii, UniProt D0C8Z9).
T4 construct: Five microliters of total bacterial membrane preparation was mixed with 5 μL of a test compound; endogenous in cells
T4 sequence (D0C8Z9 1-672): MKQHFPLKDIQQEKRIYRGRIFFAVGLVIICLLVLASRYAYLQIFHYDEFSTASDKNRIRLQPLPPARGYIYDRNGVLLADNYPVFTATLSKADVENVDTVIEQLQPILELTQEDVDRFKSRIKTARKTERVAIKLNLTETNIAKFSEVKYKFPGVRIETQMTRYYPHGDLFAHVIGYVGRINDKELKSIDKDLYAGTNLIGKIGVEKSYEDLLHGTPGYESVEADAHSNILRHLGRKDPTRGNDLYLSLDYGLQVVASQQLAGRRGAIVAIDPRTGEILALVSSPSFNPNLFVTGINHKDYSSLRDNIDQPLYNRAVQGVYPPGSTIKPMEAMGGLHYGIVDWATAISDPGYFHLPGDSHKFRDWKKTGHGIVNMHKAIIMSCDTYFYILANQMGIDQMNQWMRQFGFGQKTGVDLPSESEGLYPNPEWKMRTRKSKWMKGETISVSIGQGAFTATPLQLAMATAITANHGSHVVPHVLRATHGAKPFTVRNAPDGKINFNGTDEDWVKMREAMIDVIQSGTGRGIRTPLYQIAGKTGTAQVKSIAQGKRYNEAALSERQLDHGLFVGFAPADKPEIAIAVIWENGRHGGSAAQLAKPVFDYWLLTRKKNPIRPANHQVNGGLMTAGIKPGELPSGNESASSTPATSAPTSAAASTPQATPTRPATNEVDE
Further details: method as in earlier work. Particulars: value in parentheses; A. baumannii ATCC 19606; cited from earlier work.

Data on two compounds can be found in publication PMC9578396, “Intrinsic Antibacterial Activity of Xeruborbactam In Vitro: Assessing Spectrum and Mode of Action” (Antimicrobial Agents and Chemotherapy, 2022).

Each structure is given as a SMILES string. ≈ marks a conversion by molar mass, not a printed value. Read-outs that look alike come from different tables or passages of the source.

T1 sequence (Q9X6V3 1-646): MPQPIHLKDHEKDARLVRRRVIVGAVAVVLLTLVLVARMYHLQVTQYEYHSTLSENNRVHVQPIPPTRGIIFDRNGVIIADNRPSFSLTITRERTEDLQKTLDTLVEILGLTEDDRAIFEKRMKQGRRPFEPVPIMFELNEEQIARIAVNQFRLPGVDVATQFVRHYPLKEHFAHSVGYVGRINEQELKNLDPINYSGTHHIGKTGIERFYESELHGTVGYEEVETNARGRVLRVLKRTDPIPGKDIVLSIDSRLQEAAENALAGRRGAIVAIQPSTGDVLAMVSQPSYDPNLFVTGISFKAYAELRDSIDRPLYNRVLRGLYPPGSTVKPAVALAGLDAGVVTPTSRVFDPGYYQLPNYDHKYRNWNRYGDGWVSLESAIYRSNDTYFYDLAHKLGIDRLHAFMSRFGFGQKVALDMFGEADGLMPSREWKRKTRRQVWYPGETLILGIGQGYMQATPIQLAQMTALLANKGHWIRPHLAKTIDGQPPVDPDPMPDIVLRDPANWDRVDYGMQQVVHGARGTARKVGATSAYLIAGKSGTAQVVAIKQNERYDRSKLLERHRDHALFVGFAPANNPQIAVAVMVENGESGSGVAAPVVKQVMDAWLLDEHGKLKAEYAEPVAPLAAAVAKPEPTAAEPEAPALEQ
T2 sequence (G3XD46 whole entry): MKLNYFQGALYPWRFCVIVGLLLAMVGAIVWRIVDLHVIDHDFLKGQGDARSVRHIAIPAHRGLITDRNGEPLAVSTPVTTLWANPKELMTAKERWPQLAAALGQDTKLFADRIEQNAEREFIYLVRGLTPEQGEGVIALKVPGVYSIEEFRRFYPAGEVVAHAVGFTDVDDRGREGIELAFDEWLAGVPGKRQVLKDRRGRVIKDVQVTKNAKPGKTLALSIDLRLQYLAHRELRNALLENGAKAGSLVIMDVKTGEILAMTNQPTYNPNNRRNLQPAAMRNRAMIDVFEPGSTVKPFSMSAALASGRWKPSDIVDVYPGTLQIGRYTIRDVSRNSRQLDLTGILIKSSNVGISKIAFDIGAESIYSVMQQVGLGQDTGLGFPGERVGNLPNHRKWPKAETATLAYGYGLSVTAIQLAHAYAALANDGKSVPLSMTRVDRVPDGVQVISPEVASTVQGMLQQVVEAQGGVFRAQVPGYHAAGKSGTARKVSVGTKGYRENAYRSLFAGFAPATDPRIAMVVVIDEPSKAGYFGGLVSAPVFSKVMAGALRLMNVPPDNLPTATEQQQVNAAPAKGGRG
T3 sequence (Q07806 whole entry): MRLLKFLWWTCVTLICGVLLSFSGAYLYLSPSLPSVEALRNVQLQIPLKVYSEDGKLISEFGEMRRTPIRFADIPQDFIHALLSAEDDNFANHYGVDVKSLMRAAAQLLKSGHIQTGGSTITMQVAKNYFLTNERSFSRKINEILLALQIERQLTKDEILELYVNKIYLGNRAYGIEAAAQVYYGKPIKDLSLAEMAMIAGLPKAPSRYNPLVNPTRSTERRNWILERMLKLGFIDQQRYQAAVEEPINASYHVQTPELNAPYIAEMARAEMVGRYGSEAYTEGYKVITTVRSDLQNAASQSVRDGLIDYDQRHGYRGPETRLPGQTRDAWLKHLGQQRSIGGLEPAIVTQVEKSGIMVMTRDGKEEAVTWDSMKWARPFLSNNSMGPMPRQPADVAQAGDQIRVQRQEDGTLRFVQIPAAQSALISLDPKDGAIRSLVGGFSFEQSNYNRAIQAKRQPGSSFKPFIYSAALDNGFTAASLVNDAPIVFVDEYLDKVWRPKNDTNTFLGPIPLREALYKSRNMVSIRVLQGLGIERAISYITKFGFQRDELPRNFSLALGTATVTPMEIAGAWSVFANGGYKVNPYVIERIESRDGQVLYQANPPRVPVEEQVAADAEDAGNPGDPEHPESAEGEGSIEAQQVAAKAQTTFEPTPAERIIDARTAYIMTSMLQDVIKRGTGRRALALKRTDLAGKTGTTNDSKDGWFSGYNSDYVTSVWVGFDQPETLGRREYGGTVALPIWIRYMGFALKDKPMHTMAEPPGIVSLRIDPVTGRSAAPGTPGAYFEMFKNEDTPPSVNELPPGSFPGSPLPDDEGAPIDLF
Sequence of PBP2 (Klebsiella pneumoniae, UniProt A6T696) (A6T696 entry or part of it): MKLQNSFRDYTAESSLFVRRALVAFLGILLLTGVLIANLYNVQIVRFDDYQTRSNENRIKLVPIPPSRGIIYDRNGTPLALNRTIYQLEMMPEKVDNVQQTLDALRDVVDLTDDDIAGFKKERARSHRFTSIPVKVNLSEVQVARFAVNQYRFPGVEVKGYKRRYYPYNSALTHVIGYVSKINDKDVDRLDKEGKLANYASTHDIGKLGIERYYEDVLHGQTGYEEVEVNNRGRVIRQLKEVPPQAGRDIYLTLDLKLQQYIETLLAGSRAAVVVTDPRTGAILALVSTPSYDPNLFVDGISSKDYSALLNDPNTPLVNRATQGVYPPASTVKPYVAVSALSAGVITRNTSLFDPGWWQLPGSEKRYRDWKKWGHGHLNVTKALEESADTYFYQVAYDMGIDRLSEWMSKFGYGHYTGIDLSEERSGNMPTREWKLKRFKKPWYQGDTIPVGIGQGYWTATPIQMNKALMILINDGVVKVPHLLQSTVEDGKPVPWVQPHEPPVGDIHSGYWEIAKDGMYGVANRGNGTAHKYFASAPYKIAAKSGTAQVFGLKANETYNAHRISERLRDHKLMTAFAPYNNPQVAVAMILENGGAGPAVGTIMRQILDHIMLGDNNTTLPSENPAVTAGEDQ
Sequence of PBP1a (Klebsiella pneumoniae, UniProt A0A0H3GZF1) (A0A0H3GZF1 entry or part of it): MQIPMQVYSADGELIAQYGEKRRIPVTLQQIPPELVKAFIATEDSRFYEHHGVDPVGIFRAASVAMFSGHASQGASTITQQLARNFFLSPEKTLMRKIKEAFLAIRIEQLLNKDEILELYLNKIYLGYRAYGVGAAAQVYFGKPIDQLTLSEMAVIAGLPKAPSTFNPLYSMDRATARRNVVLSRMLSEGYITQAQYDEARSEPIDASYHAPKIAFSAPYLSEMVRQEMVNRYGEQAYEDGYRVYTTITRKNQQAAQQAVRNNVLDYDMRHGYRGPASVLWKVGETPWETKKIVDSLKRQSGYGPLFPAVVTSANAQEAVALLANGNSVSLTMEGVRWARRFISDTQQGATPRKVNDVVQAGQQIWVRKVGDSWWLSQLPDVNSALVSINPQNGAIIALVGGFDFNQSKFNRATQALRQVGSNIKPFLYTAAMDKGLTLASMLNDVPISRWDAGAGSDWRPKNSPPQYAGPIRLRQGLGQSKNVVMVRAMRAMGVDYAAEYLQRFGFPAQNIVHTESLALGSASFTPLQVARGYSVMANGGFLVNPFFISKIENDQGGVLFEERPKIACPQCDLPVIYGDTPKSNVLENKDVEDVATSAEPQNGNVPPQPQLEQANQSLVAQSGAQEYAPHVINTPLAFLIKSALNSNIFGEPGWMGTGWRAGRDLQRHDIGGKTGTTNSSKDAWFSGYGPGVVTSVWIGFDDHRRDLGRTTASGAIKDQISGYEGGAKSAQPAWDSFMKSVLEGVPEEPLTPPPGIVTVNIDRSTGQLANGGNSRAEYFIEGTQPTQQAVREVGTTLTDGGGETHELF

As for `O=C(O)c1c(F)ccc2c1OB(O)[C@@H]1C[C@H]21` [Xeruborbactam], the MBC amounted to 32 µg/mL (≈ 144 µM) in [1] and 16 µg/mL (≈ 72.1 µM) in [3]. For the same compound, the IC50 came to 370000 ± 120000 nM on PBP2 [2] and 510000 ± 120000 nM on PBP3. Further, the MIC50 in the assay with Proteus mirabilis and in the assay on Other Enterobacterales was 16 µg/mL (≈ 72.1 µM) in each case. Moreover, the MIC90 against Proteus mirabilis and against Other Enterobacterales was 32 µg/mL (≈ 144 µM) in each case. For the same compound, the MIC range against Other Enterobacterales was 8 to 64 µg/mL.

Regarding `C[C@@H](O)[C@H]1C(=O)N2C(C(=O)O)=C(S[C@@H]3CN[C@H](C(=O)N(C)C)C3)[C@H](C)[C@H]12` [Meropenem], the IC50 was 170 nM on PBP1a [4]; 50 nM at PBP2 [5]; 5200 nM on PBP1a [6]; less than 20 nM on PBP2 [7]; less than 80 nM at PBP2 [8].
